These results are taken from article PMC9268153 (2022).

Assay [1] deals with ds-oligo (DNA, duplex) GGGAGGTTTCGC/GCGAAACCTCCC
The assay can be described thus: ITC. The conditions noted are these: 50 mM potassium phosphate (K+); 50 mM KH2PO4-K2HPO4 pH 7.0, 25 °C; undetectable.

Assay [2] has as its system Telomere G1 (Telomere G4) (DNA, G4) TAGGGTTAGGGTTAGGGTTAGGG
The assay can be described thus: ITC. The conditions noted are these: 50 mM potassium phosphate (K+), 50 mM KH2PO4-K2HPO4 pH 7.0, 25 °C; for binding: n.d. (not detected), titrant up to 100 μM.

The test system of assay [3] is c-myc AP sites (DNA, G4, abasic (d-spacer) at 7 and 16) TGAGGGNGGGGAGGGNGGGGAA
The assay can be described thus: ITC. The conditions noted are these: 50 mM potassium phosphate (K+); 50 mM KH2PO4-K2HPO4 pH 7.0, 25 °C.

In assay [4] the test system is G1-r23nt (RNA, G4) UAGGGUUAGGGUUAGGGUUAGGG
The assay can be described thus: ITC. The conditions noted are these: 50 mM potassium phosphate (K+); 50 mM KH2PO4-K2HPO4 pH 7.0, 25 °C.

Assay [5] concerns G1-r12nt (RNA, G4) UAGGGUUAGGGU
The assay can be described thus: ITC. Particulars: 50 mM potassium phosphate (K+); 50 mM KH2PO4-K2HPO4 pH 7.0, 25 °C.

In assay [6] the test system is Telomere G1 (Telomere G4) (DNA, G4) TAGGGTTAGGGTTAGGGTTAGGG
Nature of the assay: CD melting. Particulars: 100 mM KCl; 50 mM Tris-HCl pH 7.4; 4.5 μM compound, 1.5 μM nucleic acid.

For assay [7], the system named is G1-r23nt (RNA, G4) UAGGGUUAGGGUUAGGGUUAGGG
The assay can be described thus: CD melting. Particulars: 5 mM KCl; 50 mM Tris-HCl pH 7.4; 4.5 μM compound, 1.5 μM nucleic acid.

The subject of assay [8] is G1-r12nt (RNA, G4) UAGGGUUAGGGU
The assay can be described thus: CD melting. The conditions noted are these: 100 mM KCl; 50 mM KH2PO4-K2HPO4 pH 7.0; 4.5 μM compound, 1.5 μM nucleic acid.

The subject of assay [9] is c-kit (DNA, G4) AGGGAGGGCGCTGGGAGGAGGG
The assay can be described thus: CD spectral change. The conditions noted are these: 100 mM KCl; 50 mM Tris-HCl pH 7.4, 25 °C; 1.5 μM DNA, up to 4.5 μM compound.

In assay [10] the test system is ds-oligo (DNA, duplex) GGGAGGTTTCGC/GCGAAACCTCCC
Nature of the assay: UV-Vis titration, Scatchard. Particulars: 100 mM KCl; 50 mM Tris-HCl pH 7.4, 25 °C.

Assay [11] has as its system Telomere G1 (Telomere G4) (DNA, G4) TAGGGTTAGGGTTAGGGTTAGGG
Nature of the assay: UV-Vis titration, Scatchard. Particulars: 100 mM KCl; 50 mM Tris-HCl pH 7.4, 25 °C.

The structures appear in SMILES notation.

A word on the ΔTm: it is the shift of the melting midpoint relative to a reference. As for `CN(CCCN1C(=O)c2ccc3c4c(ccc(c24)C1=O)C(=O)N(CCCN(C)C[C@H]1O[C@@H]2O[C@H]4[C@H](O)[C@@H](O)[C@@H](O[C@H]5[C@H](O)[C@@H](O)[C@@H](O[C@H]6[C@H](O)[C@@H](O)[C@@H](O[C@H]7[C@H](O)[C@@H](O)[C@@H](O[C@H]8[C@H](O)[C@@H](O)[C@@H](O[C@H]9[C@H](O)[C@@H](O)[C@@H](O[C@H]1[C@H](O)[C@H]2O)O[C@@H]9CO)O[C@@H]8CO)O[C@@H]7CO)O[C@@H]6CO)O[C@@H]5CO)O[C@@H]4CO)C3=O)C[C@H]1O[C@@H]2O[C@H]3[C@H](O)[C@@H](O)[C@@H](O[C@H]4[C@H](O)[C@@H](O)[C@@H](O[C@H]5[C@H](O)[C@@H](O)[C@@H](O[C@H]6[C@H](O)[C@@H](O)[C@@H](O[C@H]7[C@H](O)[C@@H](O)[C@@H](O[C@H]8[C@H](O)[C@@H](O)[C@@H](O[C@H]1[C@H](O)[C@H]2O)O[C@@H]8CO)O[C@@H]7CO)O[C@@H]6CO)O[C@@H]5CO)O[C@@H]4CO)O[C@@H]3CO`, the binding entry in assay [1] was “no”; in assay [2], “no”; in [5] it was “yes”. Besides, the Ka in assay [3] is 2.2 ± 0.3 × 10^5 M^-1; in [4], 19.0 ± 2.2 × 10^5 M^-1. Besides, the ΔTm is under 0.5 °C in [6], 10.3 ± 0.3 °C in assay [7] and 2.1 ± 0.9 °C in [8].
Take `CN(C)CCCN1C(=O)c2ccc3c4c(ccc(c24)C1=O)C(=O)N(CCCN(C)C)C3=O`: the Ka is listed as 9.5 ± 0.6 × 10^5 M^-1 in [2], 2.9 ± 0.2 × 10^5 M^-1 in assay [3], 3.9 ± 0.1 × 10^5 M^-1 in assay [10] and 9.5 ± 0.9 × 10^5 M^-1 in assay [11]. In addition, the ΔTm in [6] worked out at 5.1 ± 1.1 °C; in assay [7], 19.9 ± 0.1 °C; in assay [8], 6.1 ± 0.4 °C. The binding result in [9] is “yes”.
For the molecule `O=C(CN1C(=O)c2ccc3c4c(ccc(c24)C1=O)C(=O)N(CC(=O)NCCNC[C@H]1O[C@@H]2O[C@H]4[C@H](O)[C@@H](O)[C@@H](O[C@H]5[C@H](O)[C@@H](O)[C@@H](O[C@H]6[C@H](O)[C@@H](O)[C@@H](O[C@H]7[C@H](O)[C@@H](O)[C@@H](O[C@H]8[C@H](O)[C@@H](O)[C@@H](O[C@H]9[C@H](O)[C@@H](O)[C@@H](O[C@H]1[C@H](O)[C@H]2O)O[C@@H]9CO)O[C@@H]8CO)O[C@@H]7CO)O[C@@H]6CO)O[C@@H]5CO)O[C@@H]4CO)C3=O)NCCNC[C@H]1O[C@@H]2O[C@H]3[C@H](O)[C@@H](O)[C@@H](O[C@H]4[C@H](O)[C@@H](O)[C@@H](O[C@H]5[C@H](O)[C@@H](O)[C@@H](O[C@H]6[C@H](O)[C@@H](O)[C@@H](O[C@H]7[C@H](O)[C@@H](O)[C@@H](O[C@H]8[C@H](O)[C@@H](O)[C@@H](O[C@H]1[C@H](O)[C@H]2O)O[C@@H]8CO)O[C@@H]7CO)O[C@@H]6CO)O[C@@H]5CO)O[C@@H]4CO)O[C@@H]3CO`, the binding entry in [1] was “no”; in [2] it was “no”; in [5] it was “yes”. The results for the Ka in assay [3] and in assay [4] were 2.0 ± 0.8 × 10^5 M^-1 and 12.3 ± 2.2 × 10^5 M^-1, respectively. Besides, the shift in melting temperature (ΔTm) in assay [6] was under 0.5 °C; in assay [7], 10.6 ± 0.6 °C; in assay [8], under 0.5 °C.
